According to US20100190768A1, “NOVEL FUSED PYROLE DERIVATIVE” (Dainippon Sumitomo Pharma Co., Ltd., priority 2005, published 2010):

Experiments:
human GRα protein = molecular target: T1, human GRα protein (Homo sapiens, UniProt P04150); test: Binding inhibitory assay (displacement of 3H-dexamethasone from the cytoplasm fraction of baculovirus-infected insect cells); conditions: 3H-Dex, NSB with 10 μM dexamethasone; for inhibition at 0.1 µM: 100 nM test compound, read-out: Binding Inhibitory ratio (%) of 100 nM of test compound
T1 construct: made in house; host or cells: insect cells infected with baculovirus; cytoplasm fraction used
T1 sequence (P04150 1-777): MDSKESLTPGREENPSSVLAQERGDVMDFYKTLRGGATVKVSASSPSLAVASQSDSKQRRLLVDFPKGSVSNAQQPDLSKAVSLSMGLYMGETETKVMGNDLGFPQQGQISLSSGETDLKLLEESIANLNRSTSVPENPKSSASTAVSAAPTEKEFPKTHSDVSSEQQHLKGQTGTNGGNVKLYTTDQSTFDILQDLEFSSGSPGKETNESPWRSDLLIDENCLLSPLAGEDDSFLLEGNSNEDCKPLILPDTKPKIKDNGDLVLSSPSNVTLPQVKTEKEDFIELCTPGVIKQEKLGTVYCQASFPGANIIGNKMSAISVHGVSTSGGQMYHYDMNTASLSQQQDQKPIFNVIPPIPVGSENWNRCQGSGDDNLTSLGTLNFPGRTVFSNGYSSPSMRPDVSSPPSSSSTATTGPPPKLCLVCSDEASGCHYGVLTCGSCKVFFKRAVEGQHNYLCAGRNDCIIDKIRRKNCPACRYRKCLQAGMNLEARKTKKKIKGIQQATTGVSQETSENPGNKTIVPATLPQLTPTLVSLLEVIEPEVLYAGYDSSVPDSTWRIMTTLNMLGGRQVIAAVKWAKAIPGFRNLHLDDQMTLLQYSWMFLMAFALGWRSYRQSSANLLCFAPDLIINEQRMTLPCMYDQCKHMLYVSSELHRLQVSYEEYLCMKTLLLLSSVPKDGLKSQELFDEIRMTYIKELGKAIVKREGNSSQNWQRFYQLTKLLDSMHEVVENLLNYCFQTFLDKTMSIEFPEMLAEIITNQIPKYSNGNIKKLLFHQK
Protocol: Insect cells, which had been infected with baculovirus for expressing human GRα protein, were suspended in an approximately equal volume of a binding buffer (10 mM Tris-Cl, 1.5 mM EDTA, 10% glycerol, 5 mM DTT, 20 mM sodium molybdate, pH 7.6). The mixture was rapidly frozen with liquid nitrogen, and then melted at room temperature. This cycle was repeated totally twice in order to break the cell membrane. The mixture was ultracentrifuged under 100,000 g at 4° C. for one hour to give the supernatant, which was the cytoplasm fraction containing human GRα protein.
A polypropylene 96-well plate (manufactured by Costar Corporation, etc.) was placed on ice, and DMSO or a test compound (each 1 μl) was put into each well. A 10 nM ^3H-Dex solution (50 μl; tritiated dexamethasone; manufactured by Amersham) in the binding buffer, and a GR protein solution, i.e., a solution by diluting the above cytoplasm fraction with the binding buffer (50 μl) were added to each well, and the plate was lightly shaken with a plate mixer, and then left to stand at 4° C. for 16 to 20 hours (the final concentration of DMSO: 1%).
A 5% solution of dextran-coated active carbon (manufactured by Sigma) suspended in the binding buffer (50 μl) was put into each well, and the plate was lightly shaken with a plate mixer for 30 seconds. Then, the plate was centrifuged at 2500 rpm at 4° C. for 5 minutes, and the ^3H count in the supernatant (50 μl) was measured by a TopCount (manufactured by Perkin-Elmer Corporation). Each test compound was tested twice.
The binding activity was calculated as follows. The mean ^3H count in the presence of dexamethason (Dex) 10 μM was considered as NSB (non-specific binding), and the binding inhibitory ratio in each well was calculated by the following equation.
Binding Inhibitory Ratio (%)=100×{1−(cpm value of each well−NSB)/(mean cpm value of DMSO-well−NSB)}
(cpm means count per minute)
The mean binding inhibitory ratio of each well was calculated by the above equation to give a binding inhibitory ratio of each test compound.

H4-III-E cells = test: TAT (tyrosine aminotransferase) assay; format: cell-based; conditions: for activation at 10 µM / Agonistic activity of 10 μM test compound: 10 μM test compound alone, relative to maximum Dex-induced TAT activity (100%); for activation at 10 µM: read-out: Agonistic activity of 10 μM test compound; for Antagonistic activity of 10 μM test compound: 10 μM test compound together with 0.005 μM dexamethasone, inhibitory ratio against TAT activity increase by Dex
Protocol: H4-III-E cells, which had been continuously cultured in α-MEM medium A (supplemented with 10% inactivated FBS, 50 μM 2-mercapto-ethanol), were suspended in α-MEM medium A or α-MEM medium B (supplemented with 10% inactivated FBS, 50 μM 2-mercapto-ethanol, but without phenol red), and the cell suspension was seeded to a 96-well plate in an amount of 2×10^4 cells/100 μl/well, and the cells were cultured overnight. The supernatant in the medium was removed, and a test compound (100 μl, diluted with α-MEM medium A or α-MEM medium B) was added, and the cells were further cultured overnight. In order to measure the agonistic activity, a test compound was added alone, while in order to measure the antagonistic activity, a test compound was added simultaneously together with 0.005 μM dexamethasone and evaluated the extent of the inhibitory effect of said test compound against the TAT activity-inducing activity by dexamethasone.
The culture supernatant in the plate was removed by suction, and a cell lysate (20 μL; 1% NP-40, 0.2% Triton X-100, 0.25% DOC, 0.1% SDS, 1 mM EGTA, 150 mM NaCl, Tris (pH7.4), Protease inhibitor cocktail [2.5 mg/ml aprotinin, 2.5 mg/ml leupeptin, 2.5 mg/ml soybean trypsin inhibitor]) was added, and further thereto was added a TAT reaction reagent (150 μL; 10 N KOH, 0.125 M KH2PO4, 0.5 M α-ketoglutarate, 5 mM Pyridoxal-5′ phosphate, L-tyrosine), and the mixture was reacted at 37° C. for 15 minutes. Further, a 10N KOH (20 μL) was added thereto, and the mixture was reacted at 37° C. for 30 minutes, and the absorbance at 331 nm was measured by a microplate reader (SPECTRA MAX 250).
From the mean absorbance in the wells to which a test compound was added, the mean absorbance in the wells to which a compound and a TAT reaction solution were not added was subtracted.
Agonistic activity (%)=100×[(absorbance of the drug-treated group)−(absorbance of the group without TAT reaction reagent)]/[(absorbance of Dex-treated group)−(absorbance of the group without TAT reaction reagent)]
On the other hand, the antagonistic activity was calculated as follows.
Antagonistic activity (%)=Inhibitory ratio (%) against TAT activity increase by Dex=100−100×[(absorbance of the drug-treated group)−(absorbance of the group without a drug)]/[(absorbance of Dex-treated group)−(absorbance of the group without a drug)]
With regard to the agonistic activity and the antagonistic activity, the results of 10% or more were expressed as O, while the results of less than 10% were expressed as X.

## COCCNCC(O)(c1cn(Cc2ccccc2)c2cc([N+](=O)[O-])ccc12)C(F)(F)F (stereo not drawn) [Example 131, 2-(1-Benzyl-6-nitro-1H-indol-3-yl)-1,1,1-trifluoro-3-[(2-methoxyethyl)amino]-propan-2-ol]
Human GRα protein
  inhibition at 0.1 µM: 84%
H4-III-E cells
  activation at 10 µM: < 10%

## O=[N+]([O-])c1ccc2c(C(O)(CN3CCC(Nc4ccccc4)CC3)C(F)(F)F)cn(Cc3ccccc3)c2c1 (stereo not drawn) [Example 185, 3-(4-Anilinopiperidin-1-yl)-2-(1-benzyl-6-nitro-1H-indol-3-yl)-1,1,1-trifluoropropan-2-ol]
Human GRα protein
  inhibition at 0.1 µM: 82%
H4-III-E cells
  activation at 10 µM: < 10%
  Antagonistic activity of 10 μM test compound: ◯

## O=[N+]([O-])c1ccc2c(C(O)(CN3CCCCC3)C(F)(F)F)cn(Cc3ccccc3)c2c1 (stereo not drawn) [Example 1, 2-(1-Benzyl-6-nitro-1H-indol-3-yl)-1,1,1-trifluoro-3-piperidin-1-ylpropan-2-ol]
Human GRα protein
  inhibition at 0.1 µM: 92%
H4-III-E cells
  activation at 10 µM: < 10%
  Antagonistic activity of 10 μM test compound: ◯

## CCOC(=O)CCCNCC(O)(c1cn(Cc2ccccc2)c2cc([N+](=O)[O-])ccc12)C(F)(F)F (stereo not drawn) [Example 169, Ethyl 4-{[2-(1-benzyl-6-nitro-1H-indol-3-yl)-3,3,3-trifluoro-2-hydroxypropyl]-amino}butanoate]
Human GRα protein
  inhibition at 0.1 µM: 99%
H4-III-E cells
  Agonistic activity of 10 μM test compound: ◯
  Antagonistic activity of 10 μM test compound: ◯

## CCOC(=O)C(O)(c1cn(Cc2ccccc2)c2c([N+](=O)[O-])cccc12)C(F)(F)F (stereo not drawn) [Example 21, Ethyl 2-(1-benzyl-7-nitro-1H-indol-3-yl)-3,3,3-trifluoro-2-hydroxypropanoate]
Human GRα protein; 1 μM test compound
  Binding Inhibitory ratio (%) of test compound (1 μM): 79%
H4-III-E cells
  activation at 10 µM: < 10%
  Antagonistic activity of 10 μM test compound: ◯

## CCOC(=O)CCc1ccc(OC2CCN(CC(O)(c3cn(Cc4ccccc4)c4cc([N+](=O)[O-])ccc34)C(F)(F)F)CC2)cc1 (stereo not drawn) [Example 181, Ethyl 3-[4-({1-[2-(1-benzyl-6-nitro-1H-indol-3-yl)-3,3,3-trifluoro-2-hydroxypropyl]piperidin-4-yl}oxy)phenyl]propanoate]
Human GRα protein
  inhibition at 0.1 µM: 87%
H4-III-E cells
  Agonistic activity of 10 μM test compound: ◯
  Antagonistic activity of 10 μM test compound: ◯

## O=[N+]([O-])c1ccc2c(C(O)(CNCC3CCCO3)C(F)(F)F)cn(Cc3ccccc3)c2c1 (stereo not drawn) [Example 140, 2-(1-Benzyl-6-nitro-1H-indol-3-yl)-1,1,1-trifluoro-3-[(tetrahydrofuran-2-yl-methyl)amino]propan-2-ol]
Human GRα protein
  inhibition at 0.1 µM: 80%
H4-III-E cells
  activation at 10 µM: < 10%
  Antagonistic activity of 10 μM test compound: ◯

## O=[N+]([O-])c1ccc2c(C(O)(CN3CCS(=O)(=O)CC3)C(F)(F)F)cn(Cc3ccccc3)c2c1 (stereo not drawn) [Example 120, 2-(1-Benzyl-6-nitro-1H-indol-3-yl)-3-(1,1-dioxidothiomorpholin-4-yl)-1,1,1-trifluoropropan-2-ol]
Human GRα protein
  inhibition at 0.1 µM: 97%
H4-III-E cells
  Agonistic activity of 10 μM test compound: ◯
  Antagonistic activity of 10 μM test compound: ◯

## O=[N+]([O-])c1ccc2c(C(O)(CN3CCN(c4ccccc4)CC3)C(F)(F)F)cn(Cc3ccccc3)c2c1 (stereo not drawn) [Example 75, 2-(1-Benzyl-6-nitro-1H-indol-3-yl)-1,1,1-trifluoro-3-(4-phenylpiperazin-1-yl)propan-2-ol]
Human GRα protein
  inhibition at 0.1 µM: 96%
H4-III-E cells
  Agonistic activity of 10 μM test compound: ◯
  Antagonistic activity of 10 μM test compound: ◯

## O=[N+]([O-])c1ccc2c(C(O)(CN3CCC(Oc4ccc(F)cc4)CC3)C(F)(F)F)cn(Cc3ccccc3)c2c1 (stereo not drawn) [Example 77, 2-(1-Benzyl-6-nitro-1H-indol-3-yl)-1,1,1-trifluoro-3-[4-(4-fluorophenoxy)-piperidin-1-yl]propan-2-ol]
Human GRα protein
  inhibition at 0.1 µM: 92%
H4-III-E cells
  Agonistic activity of 10 μM test compound: ◯
  Antagonistic activity of 10 μM test compound: ◯

## COc1cc(CC(=O)O)ccc1OC1CCN(CC(O)(c2cn(Cc3ccccc3)c3cc([N+](=O)[O-])ccc23)C(F)(F)F)CC1 (stereo not drawn) [Example 201, [4-({1-[2-(1-Benzyl-6-nitro-1H-indol-3-yl)-3,3,3-trifluoro-2-hydroxypropyl]-piperidin-4-yl}oxy)-3-methoxyphenyl]acetic acid]
Human GRα protein
  inhibition at 0.1 µM: 99%
H4-III-E cells
  Agonistic activity of 10 μM test compound: ◯
  Antagonistic activity of 10 μM test compound: ◯

## O=[N+]([O-])c1ccc2c(C(O)(CN3CCC4(CC3)CNc3ccccc3O4)C(F)(F)F)cn(Cc3ccccc3)c2c1 (stereo not drawn) [Example 128, 2-(1-Benzyl-6-nitro-1H-indol-3-yl)-3-(3,4-dihydro-1′H-spiro[1,4-benzoxazine-2,4′-piperidin]-1′-yl)-1,1,1-trifluoropropan-2-ol]
Human GRα protein
  inhibition at 0.1 µM: 64%
H4-III-E cells
  activation at 10 µM: < 10%

## O=C(O)Cc1ccc(OC2CCN(CC(O)(c3cn(Cc4ccccc4)c4cc([N+](=O)[O-])ccc34)C(F)(F)F)CC2)cc1 (stereo not drawn) [Example 180, [4-({1-[2-(1-Benzyl-6-nitro-1H-indol-3-yl)-3,3,3-trifluoro-2-hydroxypropyl]-piperidin-4-yl}oxy)phenyl]acetic acid]
Human GRα protein
  inhibition at 0.1 µM: 98%
H4-III-E cells
  Agonistic activity of 10 μM test compound: ◯
  Antagonistic activity of 10 μM test compound: ◯

## O=[N+]([O-])c1ccc2c(C(O)(CNCCc3ccccc3)C(F)(F)F)cn(Cc3ccccc3)c2c1 (stereo not drawn) [Example 157, 2-(1-Benzyl-6-nitro-1H-indol-3-yl)-1,1,1-trifluoro-3-[(2-phenylethyl)amino]-propan-2-ol]
Human GRα protein
  inhibition at 0.1 µM: 50%

## CCOC(=O)CCc1ccc(C(=O)C2CCN(CC(O)(c3cn(Cc4ccccc4)c4cc([N+](=O)[O-])ccc34)C(F)(F)F)CC2)cc1 (stereo not drawn) [Example 229, Ethyl 3-[4-({1-[2-(1-benzyl-6-nitro-1H-indol-3-yl)-3,3,3-trifluoro-2-hydroxypropyl]piperidin-4-yl}carbonyl)phenyl]propanoate]
Human GRα protein
  inhibition at 0.1 µM: 74%
